In general, IC50 refers to the midpoint of a concentration-inhibition curve.

The test deals with T1, PRMT9 (Homo sapiens, UniProt Q6P2P2).
T1 sequence (Q6P2P2 1-845): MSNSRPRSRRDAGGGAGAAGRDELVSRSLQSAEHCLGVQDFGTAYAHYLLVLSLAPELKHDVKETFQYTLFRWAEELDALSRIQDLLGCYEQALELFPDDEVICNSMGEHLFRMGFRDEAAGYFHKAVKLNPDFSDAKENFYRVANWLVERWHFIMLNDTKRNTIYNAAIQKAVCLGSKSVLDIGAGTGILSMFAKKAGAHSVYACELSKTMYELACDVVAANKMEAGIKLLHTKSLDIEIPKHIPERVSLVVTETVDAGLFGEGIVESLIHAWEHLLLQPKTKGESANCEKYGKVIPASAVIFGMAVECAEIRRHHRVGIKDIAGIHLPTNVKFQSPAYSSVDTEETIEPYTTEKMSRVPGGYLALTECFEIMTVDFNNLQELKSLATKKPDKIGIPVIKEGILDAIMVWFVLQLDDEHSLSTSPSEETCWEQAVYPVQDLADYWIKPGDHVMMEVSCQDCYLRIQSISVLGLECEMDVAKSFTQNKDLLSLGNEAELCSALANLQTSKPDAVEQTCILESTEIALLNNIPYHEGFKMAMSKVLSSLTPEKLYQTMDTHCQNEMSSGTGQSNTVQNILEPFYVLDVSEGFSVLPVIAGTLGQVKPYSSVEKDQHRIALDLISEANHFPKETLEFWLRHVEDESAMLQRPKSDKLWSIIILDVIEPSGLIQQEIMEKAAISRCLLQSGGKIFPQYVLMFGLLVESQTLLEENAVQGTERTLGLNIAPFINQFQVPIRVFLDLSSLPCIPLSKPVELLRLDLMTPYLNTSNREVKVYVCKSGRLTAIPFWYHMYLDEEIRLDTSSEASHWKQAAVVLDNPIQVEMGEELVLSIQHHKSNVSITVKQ
As to the kind of experiment: biochemical. On the set-up: radiometric methyltransferase assay with tritiated SAM, IC50. The procedure:
The methyltransferase selectivity was assessed at two compound concentrations of 1 and 10 μM by radiometric assays using tritiated-SAM. For methyltransferases: MLL1, MLL3, EZH1 (PRC2), and EZH2 (PRC2), G9a, GLP, SUV39H1, SUV39H2, SUV420H1, SUV420H2, SETD2, SETD8, SETDB1, SETD7, PRMT1, PRMT3, PRMT4, PRMT5/ MEP50 complex, PRMT6, PRMT7, PRMT8, PRMT9, PRDM9, SMYD2, SMYD3, DNMT1, and BCDIN3D the incorporation of a tritium-labeled methyl group into biotinylated substrate was monitored using scintillation proximity assay (SPA). Briefly, a 10 μL reaction containing ^3H-SAM and substrate at concentrations close to the apparent Km values for each enzyme (balanced conditions) was prepared. The reactions were quenched with 10 μL of 7.5 M guanidine hydrochloride; 180 μL of 20 mM Tris buffer (pH 8.0) were added, and the mixture was transferred to a 96-well FlashPlate and incubated for 1 h. The counts per minute (CPM) was measured on a TopCount plate reader. The CPM in the absence of compound or enzyme was defined as 100% activity and background (0%), respectively, for each dataset[74]–[76]. Selectivity of SGC8158 against 342 kinases was evaluated in a kinase panel TR-FRET assay at 1 and 0.1 μM compound in duplicates as described before. Briefly, tagged kinases were incubated with compound and staurosporine-based fluorescent probe where the binding was detected using Tb conjugated anti-tag antibody energy transfer to the probe. Excitation wavelength was 337 nm and fluorescent emission signal was measured for Tb (486 nm) and fluorescent probe (BODIPY, 515 nm). Specific and non-specific binding was determined in the absence and presence of unlabeled staurosporine. Assays using biotinylated H2B (23–37) as a substrate were performed in buffer (20 mM Tris–HCl, pH 8.5, 0.01% Tween-20, and 5 mM DTT) containing 5 nM PRMT7, 1.1 µM ^3H-SAM (Cat.# NET155V250UC; Perkin Elmer; www.perkinelmer.com) and 0.3 µM H2B (23–37). The reaction mixtures were incubated for 60 min at 23 °C. To stop the enzymatic reactions, 10 µL of 7.5 M guanidine hydrochloride was added, followed by 180 µL of buffer (20 mM Tris, pH 8.0), mixed and then transferred to a 96-well FlashPlate (Cat.# SMP103; Perkin Elmer; www.perkinelmer.com). After mixing, the reaction mixtures in Flash plates were incubated for 1 h and the CPM were measured using Topcount plate reader (Perkin Elmer, www.perkinelmer.com). The CPM counts in the absence of compound for each dataset were defined as 100% activity. In the absence of the enzyme, the CPM counts in each dataset were defined as background (0%). The IC50 values were determined using GraphPad Prism 7 software. For the kinetic analysis of HSPA8 methylation by PRMT7, the assay mixture contained 20 mM Tris–HCl, pH 8.5, 0.01% Tween-20, and 5 mM dithiothreitol (DTT), 1 mM MgCl2, 1 mM ATP where indicated, 250 nM PRMT7, fixed concentration (20 µM) of SAM, various concentrations (up to 40 µM) of HSPA8; or fixed concentration (10 µM) of HSPA8 with different concentrations of SAM (up to 20 µM). […] To determine the mode of action, the experiments were performed in the presence of fixed biotinylated H2B peptide (residues 23–37) or HSPA8 substrate concentration and increasing SAM concentration or at fixed concentration of SAM and varying concentration of the substrate. Twenty µL of reaction mixtures were incubated at 23 °C for 60 min. To stop reactions, 100 µL of 10% trichloroacetic acid (TCA) was added, mixed and transferred to filter-plates (Millipore; cat.# MSFBN6B10; www.millipore.com). Plates were centrifuged at 930 × g (Allegra X-15R—Beckman Coulter, Inc.) for 2 min followed by two additional 10% TCA washes and one ethanol wash followed by centrifugation. Plates were dried and 30 µL MicroScint-O (

`Nc1ncnc2c1ncn2[C@@H]1O[C@H](CSCCCNCc2cccc(-c3ccc(Cl)cc3)c2)[C@@H](O)[C@H]1O` [SGC8172]: the IC50 worked out at 138 nM.

The values are drawn from publication PMC7224190, “Pharmacological inhibition of PRMT7 links arginine monomethylation to the cellular stress response” (Nature Communications, 2020).
